Reference: US6353001B1, “2-nitromethylidene/2-cyanimino/2-nitro-imino-pyrrolidines and piperidines, intermediates, and their use as pesticides” (Syngenta Investment Corporation, priority 1993, dated 2002)

Key:
Myzus persicae [1] = assay: Action against Myzus persicae (sprayed pea seedlings); format: in vivo; conditions: 400 ppm spray on infested pea seedlings, 20°, evaluation 3 to 7 days later, read-out: percentage reduction in the population (% activity)
Procedure: (§1) Action against Myzus persicae Pea seedlings are infested with Myzus persicae, then sprayed with a spray mixture comprising 400 ppm of test compound and then incubated at 20°. Evaluation is made 3 to 7 days later. The percentage reduction in the population (% activity) is determined by comparing the number of dead aphids on the treated plants with that on untreated plants.

Anthonomus grandis = assay: Action against Anthonomus grandis (sprayed cotton plants); format: in vivo; conditions: 72 h, 400 ppm spray on young cotton plants, 10 adults, evaluation 3 days later, read-out: percentage reduction in the population and percentage reduction in feeding damage (% activity)
Procedure: Action against Anthonomus […] Young cotton plants are sprayed with an aqueous emulsion comprising 400 ppm of test compound. After the spray coating has dried, the plants are populated with 10 Anthonomus grandis adults and placed in a plastics container. Evaluation is made 3 days later. The percentage reduction in the population and the percentage reduction in feeding damage (% activity) are determined by comparing the number of dead beetles and the feeding damage on the treated plants with that on untreated plants.

Myzus persicae [2] = assay: Systemic action against Myzus persicae (roots in spray mixture); format: in vivo; conditions: systemic: pea seedling roots in 400 ppm spray mixture, 20° C., evaluation 3 to 7 days later, read-out: percentage reduction in the population (% activity)
Procedure: Systemic action against Myzus persicae Pea seedlings are infested with Myzus persicae, then placed with their roots in a spray mixture comprising 400 ppm of test compound and then incubated at 20° C. Evaluation is made 3 to 7 days later. The percentage reduction in the population (% activity) is determined by comparing the number of dead aphids on the treated plants with that on untreated plants.

Nilaparvata lugens = assay: Action against Nilaparvata lugens (sprayed rice plants); format: in vivo; conditions: 504 h, 400 ppm spray on rice plants, larvae in the 2nd and 3rd stages, evaluation 21 days later, read-out: percentage reduction in the population (% activity)
Procedure: (§2) Action against Nilaparvata lugens Rice plants are sprayed with an aqueous emulsion comprising 400 ppm of test compound. After the spray coating has dried, the rice plants are populated with Nilaparvata lugens larvae in the 2nd and 3rd stages. Evaluation is made 21 days later. The percentage reduction in the population (% activity) is determined by comparing the number of surviving plant hoppers on the treated plants with that on untreated plants.

Nephotettix cincticeps = assay: Action against Nephotettix cincticeps (sprayed rice plants); format: in vivo; conditions: 504 h, 400 ppm spray on rice plants, larvae in the 2nd and 3rd stages, evaluation 21 days later, read-out: percentage reduction in the population (% activity)
Procedure: as §2, with “against Nephotettix cincticeps” for “against Nilaparvata lugens”, “the” for “the rice”, “with Nephotettix cincticeps” for “with Nilaparvata lugens”, “surviving leaf” for “surviving plant”

Plutella xylostella = assay: Action against Plutella xylostella caterpillars; format: in vivo; conditions: 72 h, 400 ppm spray on young cabbage plants, 10 caterpillars in the third stage, evaluation 3 days later, read-out: percentage reduction in the population and percentage reduction in feeding damage (% activity)
Procedure: (§3) Action against Plutella xylostella caterpillars Young cabbage plants are sprayed with an aqueous emulsion comprising 400 ppm of test compound. After the spray coating has dried, the cabbage plants are populated with 10 Plutella xylostella caterpillars in the third stage and placed in a plastics container. Evaluation is made 3 days later. The percentage reduction in the population and the percentage reduction in feeding damage (% activity) are determined by comparing the number of dead caterpillars and the feeding damage on the treated plants with that on untreated plants.

Ctenocephalides felis = assay: Systemic action against Ctenocephalides felis (membrane blood feeding); format: in vivo; conditions: 50 ppm in blood, 37°, 20 adult fleas, evaluation 24 and 48 hours, read-out: percentage reduction in the population (% activity)
Procedure: Systemic action against Ctenocephalides felis 20 adult fleas of the Ctenocephalides felis species are placed in a flat round cage closed on both sides with gauze. A vessel sealed on the underside with a parafilm membrane is placed on the cage. The vessel contains blood comprising 50 ppm of test compound and maintained at a constant 37°. The fleas ingest the blood through the membrane. Evaluation is made 24 and 48 hours after the start of the test. The percentage reduction in the population (% activity) is determined by comparing the number of dead Ctenocephalides felis fleas when treated blood is used with that when untreated blood is used. The blood is replaced by fresh treated blood 24 hours after treatment.

Heliothis virescens = assay: Action against Heliothis virescens (sprayed soybean plants); format: in vivo; conditions: 144 h, 400 ppm spray on young soybean plants, 10 caterpillars in the first stage, evaluation 6 days later, read-out: percentage reduction in the population and percentage reduction in feeding damage (% activity)
Procedure: as §3, with “against Heliothis virescens” for “against Plutella xylostella caterpillars”, “Young soybean” for “Young cabbage”, “the” for “the cabbage”, “10 Heliothis virescens” for “10 Plutella xylostella”, “the first” for “the third”, “made 6” for “made 3”

Aphis craccivora = assay: Action against Aphis craccivora (sprayed pea seedlings); format: in vivo; conditions: 400 ppm spray on infested pea seedlings, 20° C., evaluation 3 to 7 days later, read-out: percentage reduction in the population (% activity)
Procedure: as §1, with “Aphis craccivora” for “Myzus persicae”, “Aphis craccivora,” for “Myzus persicae,”, “20° C.” for “20°.”, “Aphis craccivora individuals” for “aphids”

Diabrotica balteata = assay: Action against Diabrotica balteata (sprayed maize seedlings); format: in vivo; conditions: 144 h, 400 ppm spray on maize seedlings, 10 larvae in the second stage, evaluation 6 days later, read-out: percentage reduction in the population (% activity)
Procedure: Action against Diabrotica balteata Maize seedlings are sprayed with an aqueous emulsion comprising 400 ppm of test compound. After the spray coating has dried, the seedlings are populated with 10 Diabrotica balteata larvae in the second stage and placed in a plastics container. Evaluation is made 6 days later. The percentage reduction in the population (% activity) is determined by comparing the number of dead larvae on the treated plants with that on untreated plants.

Compound | inhibition at 400 ppm (Myzus persicae [1]) [%] | inhibition at 400 ppm (Anthonomus grandis) [%] | inhibition at 400 ppm (Myzus persicae [2]) [%] | inhibition at 400 ppm (Nilaparvata lugens) [%] | inhibition at 400 ppm (Nephotettix cincticeps) [%] | melting point [°C] | inhibition at 400 ppm (Plutella xylostella) [%] | inhibition at 50 ppm (Ctenocephalides felis) [%] | inhibition at 400 ppm (Heliothis virescens) [%] | inhibition at 400 ppm (Aphis craccivora) [%] | inhibition at 400 ppm (Diabrotica balteata) [%]
CN1CCC(Cc2ccc(Cl)nc2)/C1=C/[N+](=O)[O-] (stereo not shown) [Compound 5.4, 3-(2-Chloropyrid-5-yl-methyl)-1methyl-2-nitromethylidene-pyrrolidine] | > 80 | > 80 | > 80 | > 80 | > 80 | – | – | – | – | – | –
O=[N+]([O-])/C=C1\NCCC1Cc1ccc(Cl)nc1 (stereo not shown) [Compound 5.3, 3-(2-Chloropyrid-5-yl-methyl)2-nitromethylidene-pyrrolidine] | > 80 | > 80 | > 80 | > 80 | > 80 | 159 to 161 | > 80 | > 80 | > 80 | > 80 | –
O=[N+]([O-])C=C1NCCCC1Cc1ccc(Cl)nc1 (stereo not shown) [Compound 5.16, 3-(2-chloropyrid-5-yl-methyl)-2-nitromethylidene-piperidine] | > 80 | – | – | – | – | 179 to 181 | – | – | – | – | > 80
CCN1CCC(Cc2ccc(Cl)nc2)/C1=C/[N+](=O)[O-] (stereo not shown) [Compound 5.5, 3-(2-Chloropyrid-5-yl-methyl)-1-ethyl-2-nitromethylidene-pyrrolidine] | – | – | – | – | > 80 | – | – | – | – | – | –
